From patent US20220339160A1, “ADENOSINE RECEPTOR ANTAGONIST” (priority 2019, published 2022)
Read-outs that look alike come from different tables or passages of the source.

What was measured:
A2A receptor = A2A receptor (Homo sapiens, UniProt P29274); assay: A2A receptor antagonist functional assay (cAMP, A2A cell line); assay type: cell-based
Description: (§1) A2a/A2B Receptor Antagonist Functional Assay Test:
(§2) The A2A cell line was derived from PerkinElmer (Product ID: ES-011-C); the A2B cell line was derived from PerkinElmer (Product ID: ES-013-C). The experimental procedure was referred to ACS Medicinal Chemistry Letters (2011) 2, 213-218; the specific test was completed by Pharmaron Beijing Co., Ltd. with the following steps: 10 nL of compound stock in DMSO (10 mM) followed by 10 μL of A2A or A2B cell suspension (30000 cells/mL) were transferred to assay wells of a 384-well plate at room temperature and incubated for 20 minutes at room temperature. The corresponding amount of 5′-N-ethylcarboxamidoadenosine at EC80 activation concentration was transferred to each test well, and incubated for another 30 minutes at 37° C., 5% CO2, 95% humidity, then Eu-cAMP tracer working solution and Ulight-anti-cAMP working solution were added to the cell culture plate at 5 uL/well in sequence, and the cell plate fluorescence was read with Envision (excitation wavelength: 320 nm, emission wavelength: 665 nm and 615 nm). The corresponding inhibition rate in each well was obtained according to the following formula, and a sigmoidal dose-inhibition rate curve was plotted using a non-linear regression model to calculate the IC50 value.

A2B receptor = target: T1, A2B receptor (Homo sapiens, UniProt P29275); assay: cell-based
T1 sequence (P29275 1-332): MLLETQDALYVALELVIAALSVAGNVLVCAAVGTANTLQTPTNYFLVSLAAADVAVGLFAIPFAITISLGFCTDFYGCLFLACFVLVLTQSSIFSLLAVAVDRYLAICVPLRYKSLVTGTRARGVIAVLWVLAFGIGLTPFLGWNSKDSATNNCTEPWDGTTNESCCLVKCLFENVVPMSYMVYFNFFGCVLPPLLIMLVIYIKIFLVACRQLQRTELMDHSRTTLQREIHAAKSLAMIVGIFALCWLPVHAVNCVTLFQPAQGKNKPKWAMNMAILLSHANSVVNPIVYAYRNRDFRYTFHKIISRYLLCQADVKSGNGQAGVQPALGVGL
Description: as §1
as §2, with “The experimental procedure was referred to ACS Medicinal Chemistry Letters (2011) 2, 213-218; the specific test was completed by Pharmaron Beijing Co., Ltd. with the following steps: 10 nL of compound stock in DMSO (10 mM) followed by 10 μL of A2A or A2B cell suspension (30000 cells/mL) were transferred to assay wells of a 384-well plate at room temperature and incubated for 20 minutes at room temperature.” left out

[1] = A2B cell line (PerkinElmer ES-013-C), 5'-N-ethylcarboxamidoadenosine at EC80, cAMP readout, read-out: A2B Antagonistic function IC50
[2] = A2A cell line (PerkinElmer ES-011-C), 5'-N-ethylcarboxamidoadenosine at EC80, cAMP readout, read-out: A2A Antagonistic function IC50

Sequence of A2A receptor (P29274 whole entry): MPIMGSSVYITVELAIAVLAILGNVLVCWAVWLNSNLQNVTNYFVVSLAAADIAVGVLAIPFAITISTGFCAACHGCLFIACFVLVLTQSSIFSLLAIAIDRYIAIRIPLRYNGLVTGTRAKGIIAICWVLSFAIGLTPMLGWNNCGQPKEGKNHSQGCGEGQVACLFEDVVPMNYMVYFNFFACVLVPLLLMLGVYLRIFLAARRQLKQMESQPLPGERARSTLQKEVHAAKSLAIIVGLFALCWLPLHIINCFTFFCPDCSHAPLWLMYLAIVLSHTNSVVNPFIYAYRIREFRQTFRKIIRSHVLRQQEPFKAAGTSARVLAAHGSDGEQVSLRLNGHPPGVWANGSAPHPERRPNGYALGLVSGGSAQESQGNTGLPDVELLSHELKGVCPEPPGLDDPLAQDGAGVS

Row | IC50 (A2B receptor) | IC50 (A2A receptor; [2]) | IC50 (A2A receptor; read-out: A2A Antagonistic function IC50) | SMILES | IC50 (A2A receptor) | IC50 (A2B receptor; [1])
1 |  |  |  | Cc1ccc(-c2nc(N)nc3c(CC4CCCC4)cnn23)o1 [Compound 14] | 10.4 nM | 
2 |  |  |  | Cc1ccc(-c2nc(N)nc3c(Cc4cccc(N)c4)c(Cl)nn23)o1 [Compound 46] | 1.5 nM | 4.6 nM
3 |  |  |  | COCCNc1cccc(Cc2cnn3c(-c4ccc(C)o4)nc(N)nc23)n1 [Compound 21] | 4.7 nM | 36 nM
4 |  |  |  | COCc1cccc(Cc2cnn3c(-n4ccc(C)n4)nc(N)nc23)n1 [Compound 4] | 17 nM | 
5 |  |  |  | Cc1ccc(-c2nc(N)nc3c(Cc4ccc(F)cc4C)cnn23)o1 [Compound 11] | 39 nM | 420 nM
6 |  |  |  | Cc1ccc(-c2nc(N)nc3c(Cc4ccccc4N)cnn23)o1 [Compound 27] | 1.9 nM | 9.7 nM
7 |  |  |  | Nc1cccc(Cc2cnn3c(-c4ccco4)nc(N)nc23)c1 [Compound 25] | 35 nM | 60 nM
8 |  |  |  | Cc1ccc(-c2nc(N)nc3c(CC4CCCCC4)cnn23)o1 [Compound 13] | 5.7 nM | 
9 |  |  |  | COCCNCc1cccc(Cc2cnn3c(-c4ccc(C)o4)nc(N)nc23)n1 [Compound 8] | 31 nM | 117 nM
10 |  |  |  | Cn1ccc(-c2nc(N)nc3c(Cc4cccc(N)c4)cnn23)n1 [Compound 48] | 29.1 nM | 83.5 nM
11 | 108 nM | 9.1 nM |  | Cc1ccc(-c2nc(N)nc3c(Cc4cccc(CO[C@H]5CCOC5)n4)cnn23)o1 [Compound 18] |  | 
12 |  |  |  | Cc1ccc(-c2nc(N)nc3c(Cc4cccc(COC5CC5)n4)cnn23)o1 [Compound 9] | 3.6 nM | 51 nM
13 |  |  |  | COc1cccc(Cc2cnn3c(-c4ccc(C)o4)nc(N)nc23)n1 [Compound 16] | 2.3 nM | 18.6 nM
14 |  |  |  | Cc1ccc(-c2nc(N)nc3c(Cc4cccc(N)c4)c(C)nn23)o1 [Compound 45] | 1.9 nM | 6.2 nM
15 |  |  |  | Nc1cccc(Cc2cnn3c(-c4ccco4)nc(N)nc23)n1 [Compound 23] | 46 nM | 13 nM
16 |  |  |  | Cc1ccc(-c2nc(N)nc3c(Cc4c(F)cc(F)cc4F)cnn23)o1 [Compound 12] | 1.5 nM | 3.8 nM

Row | IC50 (A2B receptor) | IC50 (A2A receptor; [2]) | IC50 (A2A receptor; read-out: A2A Antagonistic function IC50) | SMILES | IC50 (A2A receptor) | IC50 (A2B receptor; [1])
17 |  |  |  | Cc1ccc(-c2nc(N)nc3c(Cc4cccc(N)c4)cnn23)o1 [Compound 24] | 3 nM | 7.9 nM
18 |  |  |  | Cc1ccc(-c2nc(N)nc3c(Cc4cccc(CBr)n4)cnn23)o1 [Compound 6] | 10.2 nM | 
19 |  |  |  | Cc1ccc(-c2nc(N)nc3c(Cc4cccc(N)n4)cnn23)o1 [Compound 22] | 5.8 nM | 1.6 nM
20 |  |  |  | Cc1ccc(-c2nc(N)nc3c(Cc4ccc(F)cc4F)cnn23)o1 [Compound 10] | 5 nM | 16.4 nM
21 | 25 nM | 1.8 nM |  | COCc1cccc(Cc2cnn3c(-c4ccc(C)o4)nc(N)nc23)n1 [Compound 2] |  | 
22 |  |  |  | Cc1ccc(-c2nc(N)nc3c(Cc4ccc(N)cc4)cnn23)o1 [Compound 26] | 17.4 nM | 2.7 nM
23 | 103 nM |  | 7.1 nM | COCCOCc1cccc(Cc2cnn3c(-c4ccc(C)o4)nc(N)nc23)n1 [Compound 7] |  | 
24 |  |  |  | Cc1ccc(-c2nc(N)nc3c(Cc4cccc(N)c4)c(F)nn23)o1 [Compound 47] | 1.4 nM | 4 nM
25 |  |  |  | Cc1ccc(-c2nc(N)nc3c(Cc4ccc(N)c(C)c4)cnn23)o1 [Compound 29] | 5.5 nM | 15.3 nM
26 |  |  |  | Cc1ccc(-c2nc(N)nc3c(Cc4cccc(CO[C@H]5CCOC5)[n+]4[O-])cnn23)o1 [Compound 17] | 90 nM | 1030 nM
27 | 16.7 nM | 5.3 nM |  | Cc1ccc(-c2nc(N)nc3c(Cc4cccc(CO)n4)cnn23)o1 [Compound 5] |  | 
28 |  |  |  | Cc1ccc(N)c(Cc2cnn3c(-c4ccc(C)o4)nc(N)nc23)c1 [Compound 44] | 6.2 nM | 155 nM
29 |  |  |  | Cc1ccc(-c2nc(N)nc3c(Cc4ccc(N)c(C)c4)c(C)nn23)o1 [Compound 30] | 5 nM | 
30 |  |  |  | Cc1ccc(-c2nc(N)nc3c(CC4CCC4)cnn23)o1 [Compound 15] | 16 nM | 
31 |  |  |  | COCc1cccc(Cc2cnn3c(-c4cccs4)nc(N)nc23)n1 [Compound 3] | 96 nM | 
32 |  |  |  | Cc1ccc(-c2nc(N)nc3c(Cc4cc(N)c(F)cc4F)cnn23)o1 [Compound 28] | 1.6 nM | 7.7 nM

Row | SMILES | IC50 (A2B receptor) | IC50 (A2A receptor; [2]) | IC50 (A2A receptor; read-out: A2A Antagonistic function IC50) | IC50 (A2A receptor) | IC50 (A2B receptor; [1])
33 | Cc1ccc(-c2nc(N)nc3c(Cc4cccc(C(C)(C)O)n4)cnn23)o1 [Compound 19] | 70.5 nM |  |  | 1.7 nM | 
34 | Cc1ccc(-c2nc(N)nc3c(Cc4ccc(F)cc4)cnn23)o1 [Compound 1] | 16 nM |  |  | 3.3 nM | 
35 | Cc1ccc(-c2nc(N)nc3c(Cc4cccc(NCc5ccccc5)n4)cnn23)o1 [Compound 20] | 26 nM |  |  | 5.5 nM | 
